Laboratory results from patent US6716613B1, “Metalloprotease having aggrecanase activity” (Yamanouchi Pharmaceutical Co., Ltd., priority 1999, dated 2004).

Columns and labels:
[1] = test system: rabbit knee joint cartilage primary culture cells; assay: Proteoglycan degradation/release in rabbit knee joint cartilage primary culture cells (35S label); type: cell-based; conditions: compound added just before stimulation with 10 μM of all-trans retinoic acid
Method: After killing a rabbit (Japanese white species, male, 1.0 to 1.5 kg) under excess anesthesia, a knee joint was excised and the cartilage layer on the joint surface was removed and finely cut using a surgical knife. The cut pieces were treated with trypsin-EDTA (0.25%-1 mM; mfd. by GIBCO-BRL) at 37° C. for 1 hour and then centrifuged at 1,500 rpm for 5 minutes, and the resulting precipitate was washed with DMEM. This was treated with collagenase A (0.15%; Boehringer-Mannheim)/DMEM at 37° C. for 3 to 4 hours, and then a nylon mesh filter (100 μm, mfd. by Falcon)-passed fraction was centrifuged at 1,500 rpm for 5 minutes to effect precipitation of cartilage cells. The cells were thoroughly washed with DMEM/10% FBS medium, suspended in DMEM/10% FBS medium to a density of 2×10^5 cells/ml and then inoculated in 200 μl/well portions into an I type collagen-coated 96 well plate (mfd. by Asahi Technoglass). Three days thereafter, the medium was changed to 200 μof DMEM/10% FBS medium containing 50 μg/ml of ascorbic acid (ascorbic acid medium hereinafter), and the culturing was continued for 3 days. When an I type collagen-coated 6 well plate (Asahi Technoglass) was used, the cell suspension was inoculated in 6 ml/well portions and cultured by carrying out the same medium exchange. These cells were used in the following test.
The rabbit knee joint cartilage primary culture cells of 96 well plate described in Example 11-1 were cultured for 2 days using 200 μl of the ascorbic acid medium supplemented with 10 μCi/ml in final concentration of Na2^35SO4 and labeled therewith, washed 3 times with 200 μl of the ascorbic acid medium and then cultured for 1 day using 200 μl of the ascorbic acid medium. After stimulation with IL-1β or all-trans retinoic acid and subsequent 0, 24, and 48 hours of culturing, the culture supernatants were recovered in 20 μl portions, and the radioactivity was measured using Top Count (mfd. by Packard).
Each of the compounds A, B, C and D selected by the screening system of Example 10-2 was added to the proteoglycan degradation system of rabbit knee joint cartilage primary culture cells just before the stimulation with 10 μM of all-trans retinoic acid, and their proteoglycan degradation inhibitory activities were examined.

MDTS6Cys = target: T1, MDTS6Cys (Homo sapiens, UniProt Q8TE58); assay: ELISA screening system for aggrecanase activity inhibition (anti-aggrecanase neoepitope antibody); type: biochemical; conditions: MDTS6Cys culture supernatant, recombinant aggrecan G1G2 substrate, 37° C. for several hours; read-out: aggrecanase activity inhibition strength (IC50)
T1 construct: made in house; host or cells: HEK293-EBNA cells; unpurified culture supernatant used as enzyme source
T1 sequence (Q8TE58 213-687): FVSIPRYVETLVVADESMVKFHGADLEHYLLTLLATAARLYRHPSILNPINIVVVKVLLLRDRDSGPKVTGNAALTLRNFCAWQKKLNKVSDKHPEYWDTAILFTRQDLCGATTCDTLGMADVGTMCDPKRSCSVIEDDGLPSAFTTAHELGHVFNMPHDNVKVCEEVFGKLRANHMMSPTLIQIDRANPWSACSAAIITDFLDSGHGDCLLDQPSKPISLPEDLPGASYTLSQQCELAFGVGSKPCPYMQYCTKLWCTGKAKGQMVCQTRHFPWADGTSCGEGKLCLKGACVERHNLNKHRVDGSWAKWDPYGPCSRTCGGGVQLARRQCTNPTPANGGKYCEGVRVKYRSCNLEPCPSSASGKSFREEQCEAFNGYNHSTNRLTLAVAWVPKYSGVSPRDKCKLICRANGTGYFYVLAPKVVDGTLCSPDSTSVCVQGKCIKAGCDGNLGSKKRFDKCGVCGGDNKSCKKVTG
Method: The criterion to screen a substance which inhibits the aggrecanase activity is preferably 10 μM or less, more preferably 1.0 μM or less, as inhibition activity strength (IC50)

CNC(=O)[C@H](Cc1ccccc1)NC(=O)C(CC(C)C)C(CS)C(=O)NO (stereo partly drawn) [compound B, N^α-[2-(1-hydroxycarbamoyl-2-sulfanylethyl)-4-methylpentanoyl]-N-methylphenylalanineamide]
inhibition of proteoglycan degradation (in words, FIG. 8) [1]: inhibition of proteoglycan degradation in a concentration-dependent manner | IC50 (MDTS6Cys): 1 µM
